Source: publication doi:10.1101/2025.03.25.645215v1 (biorxiv, 2025)
Like-named read-outs stand apart in the source and are kept apart here.

Assays:
Assay in all cases: cell-based
Set-up in all cases: species or system HEK293 eGFP-hSLC6A15
[1] = biological target: T1, B^0AT2/SLC6A15 (eGFP-hSLC6A15) (Homo sapiens, UniProt Q9H2J7)
T1 sequence (Q9H2J7 1-730): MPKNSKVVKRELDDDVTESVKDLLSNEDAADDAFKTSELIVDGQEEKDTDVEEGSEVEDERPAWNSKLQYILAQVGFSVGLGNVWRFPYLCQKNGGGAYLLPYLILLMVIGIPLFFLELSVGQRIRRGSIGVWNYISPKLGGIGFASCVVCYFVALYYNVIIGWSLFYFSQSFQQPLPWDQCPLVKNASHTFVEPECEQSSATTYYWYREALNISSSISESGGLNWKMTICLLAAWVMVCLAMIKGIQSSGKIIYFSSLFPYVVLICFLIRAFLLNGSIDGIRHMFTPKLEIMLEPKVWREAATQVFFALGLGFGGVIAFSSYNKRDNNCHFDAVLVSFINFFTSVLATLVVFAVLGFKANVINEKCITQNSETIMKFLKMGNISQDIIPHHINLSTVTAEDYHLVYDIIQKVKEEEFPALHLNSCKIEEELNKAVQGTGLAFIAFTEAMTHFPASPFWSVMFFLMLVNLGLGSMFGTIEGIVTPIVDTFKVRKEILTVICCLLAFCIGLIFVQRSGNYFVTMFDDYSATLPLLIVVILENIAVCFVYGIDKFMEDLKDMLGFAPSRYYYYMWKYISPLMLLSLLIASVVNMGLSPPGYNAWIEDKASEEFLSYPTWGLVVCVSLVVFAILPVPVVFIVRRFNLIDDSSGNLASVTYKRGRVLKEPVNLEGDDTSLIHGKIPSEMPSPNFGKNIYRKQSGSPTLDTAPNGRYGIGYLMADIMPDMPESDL

[2] = biological target: T1, B^0AT2/SLC6A15 (eGFP-hSLC6A15); remark: listed apart in the source
[3] = biological target: T1, B^0AT2/SLC6A15 (eGFP-hSLC6A15); remark: listed apart in the source
[4] = biological target: T1, B^0AT2/SLC6A15 (eGFP-hSLC6A15); remark: listed apart in the source
[5] = read-out: B^0AT2 IC50, inhibitor

CC1(C)CC(=O)C2=C(C1)Nc1ccccc1N(C(=O)c1ccccc1)C2c1ccccc1 (stereo not shown) [11a]
IC50 [1]: 1200 ± 100 nM

CCOc1cc(C2C3=C(CC(C)(C)CC3=O)Nc3ccccc3N2C(=O)c2ccccc2)ccc1OCc1ccc(Cl)cc1 (stereo not shown) [11aa]
IC50 [1]: > 80000 nM

COc1cc(C2C3=C(CC(C)(C)CC3=O)Nc3ccccc3N2C(=O)c2ccccc2)cc(OC)c1OC (stereo not shown) [11ab]
IC50 [1]: 11300 ± 14900 nM

COc1c(Cl)cc(Cl)cc1C1C2=C(CC(C)(C)CC2=O)Nc2ccccc2N1C(=O)c1ccccc1 (stereo not shown) [11ac]
IC50 [1, 5]: > 80000 nM

CC1(C)CC(=O)C2=C(C1)Nc1ccccc1N(C(=O)c1ccccc1)C2c1ccc(F)cc1 (stereo not shown) [11b]
IC50 [1]: 2000 ± 200 nM

CC1(C)CC(=O)C2=C(C1)Nc1ccccc1N(C(=O)c1ccccc1)C2c1ccc(Cl)cc1 (stereo not shown) [11c]
IC50 [1]: 900 ± 100 nM

CC1(C)CC(=O)C2=C(C1)Nc1ccccc1N(C(=O)c1ccccc1)C2c1ccc(Br)cc1 (stereo not shown) [11d]
IC50 [1]: 740 ± 70 nM

CC1(C)CC(=O)C2=C(C1)Nc1ccccc1N(C(=O)c1ccccc1)C2c1ccc(C#N)cc1 (stereo not shown) [11e]
IC50 [1]: 730 ± 40 nM

COc1ccc(C2C3=C(CC(C)(C)CC3=O)Nc3ccccc3N2C(=O)c2ccccc2)cc1 (stereo not shown) [11f]
IC50 [1]: 400 ± 30 nM

CCOc1ccc(C2C3=C(CC(C)(C)CC3=O)Nc3ccccc3N2C(=O)c2ccccc2)cc1 (stereo not shown) [11g]
IC50 [1]: 500 ± 50 nM

CC(C)Oc1ccc(C2C3=C(CC(C)(C)CC3=O)Nc3ccccc3N2C(=O)c2ccccc2)cc1 (stereo not shown) [11h]
IC50 [1]: 1100 ± 100 nM

CCCCOc1ccc(C2C3=C(CC(C)(C)CC3=O)Nc3ccccc3N2C(=O)c2ccccc2)cc1 (stereo not shown) [11i]
IC50 [1]: 580 ± 30 nM

CCCCCOc1ccc(C2C3=C(CC(C)(C)CC3=O)Nc3ccccc3N2C(=O)c2ccccc2)cc1 (stereo not shown) [11j]
IC50 [1]: 1200 ± 100 nM

CC1(C)CC(=O)C2=C(C1)Nc1ccccc1N(C(=O)c1ccccc1)C2c1ccc(C(F)(F)F)cc1 (stereo not shown) [11k]
IC50 [1]: 2000 ± 200 nM

CN(C)c1ccc(C2C3=C(CC(C)(C)CC3=O)Nc3ccccc3N2C(=O)c2ccccc2)cc1 (stereo not shown) [11l]
IC50 [1]: 10600 ± 1700 nM

COC(=O)c1ccc(C2C3=C(CC(C)(C)CC3=O)Nc3ccccc3N2C(=O)c2ccccc2)cc1 (stereo not shown) [11m]
IC50 [1]: 1800 ± 300 nM

CC1(C)CC(=O)C2=C(C1)Nc1ccccc1N(C(=O)c1ccccc1)C2c1cccc(F)c1 (stereo not shown) [11o]
IC50 [1]: 22900 ± 14700 nM

COc1cccc(C2C3=C(CC(C)(C)CC3=O)Nc3ccccc3N2C(=O)c2ccccc2)c1 (stereo not shown) [11p]
IC50 [1]: 3200 ± 500 nM

CCCOc1cccc(C2C3=C(CC(C)(C)CC3=O)Nc3ccccc3N2C(=O)c2ccccc2)c1 (stereo not shown) [11q]
IC50 [1]: 720 ± 70 nM

CC(=O)Oc1cccc(C2C3=C(CC(C)(C)CC3=O)Nc3ccccc3N2C(=O)c2ccccc2)c1 (stereo not shown) [11r]
IC50 [1]: 640 ± 70 nM

CC1(C)CC(=O)C2=C(C1)Nc1ccccc1N(C(=O)c1ccccc1)C2c1ccccc1F (stereo not shown) [11s]
IC50 [1]: 19900 ± 8900 nM

CC1(C)CC(=O)C2=C(C1)Nc1ccccc1N(C(=O)c1ccccc1)C2c1ccccc1Cl (stereo not shown) [11t]
IC50 [1]: > 40000 nM

COc1ccccc1C1C2=C(CC(C)(C)CC2=O)Nc2ccccc2N1C(=O)c1ccccc1 (stereo not shown) [11u]
IC50 [1]: > 60000 nM

COc1ccc(C2C3=C(CC(C)(C)CC3=O)Nc3ccccc3N2C(=O)c2ccccc2)cc1OC (stereo not shown) [11w]
IC50 [1]: 7100 ± 2300 nM

CCCOc1ccc(C2C3=C(CC(C)(C)CC3=O)Nc3ccccc3N2C(=O)c2ccccc2)cc1OC (stereo not shown) [11y]
IC50 [1]: 1100 ± 100 nM

CC1(C)CC(=O)C2=C(C1)Nc1ccccc1N(C(=O)c1ccccc1)C2c1ccc(Cl)c(Cl)c1 (stereo not shown) [11z]
IC50 [1]: 2300 ± 400 nM

O=C1CCCC2=C1C(c1cccnc1)N(C(=O)c1ccccc1)c1ccccc1N2 (stereo not shown) [12a]
IC50 [2]: 1600 ± 300 nM

O=C1CCCC2=C1C(c1ccco1)N(C(=O)c1ccccc1)c1ccccc1N2 (stereo not shown) [12b]
IC50 [2]: 5100 ± 2000 nM

CC1(C)CC(=O)C2=C(C1)Nc1ccccc1N(C(=O)c1ccccc1)C2c1cccnc1 (stereo not shown) [12c]
IC50 [2]: 1900 ± 400 nM

CC1(C)CC(=O)C2=C(C1)Nc1ccccc1N(C(=O)c1ccccc1)C2c1ccccn1 (stereo not shown) [12d]
IC50 [2]: 3900 ± 800 nM

CC1(C)CC(=O)C2=C(C1)Nc1ccccc1N(C(=O)c1ccccc1)C2c1ccco1 (stereo not shown) [12e]
IC50 [2]: 1300 ± 100 nM

Cc1ccc(C2C3=C(CC(C)(C)CC3=O)Nc3ccccc3N2C(=O)c2ccccc2)o1 (stereo not shown) [12f]
IC50 [2]: 2600 ± 200 nM

Cn1cccc1C1C2=C(CC(C)(C)CC2=O)Nc2ccccc2N1C(=O)c1ccccc1 (stereo not shown) [12g]
IC50 [2]: > 80000 nM

CC1(C)CC(=O)C2=C(C1)Nc1ccccc1N(C(=O)c1ccccc1)C2c1c[nH]c2ccccc12 (stereo not shown) [12h]
IC50 [2]: > 30000 nM

CC1(C)CC(=O)C2=C(C1)Nc1ccccc1N(C(=O)c1ccccc1)C2c1ccc(-c2ccc(Br)cc2)o1 (stereo not shown) [12i]
IC50 [2, 5]: > 80000 nM

COc1cc(C2Nc3ccccc3NC3=C2C(=O)CCC3)ccc1O (stereo not shown) [13a]
IC50 [3]: > 80 µM

CCOc1cc(C2C3=C(CCCC3=O)Nc3ccccc3N2C(=O)CC)ccc1O (stereo not shown) [13b]
IC50 [3, 5]: > 80 µM

CC1(C)CC(=O)C2=C(C1)Nc1ccccc1NC2c1ccccc1 (stereo not shown) [13c]
IC50 [3]: > 80 µM

CC1(C)CC(=O)C2=C(C1)Nc1ccccc1N(Cc1ccccc1)C2c1ccccc1 (stereo not shown) [13d]
IC50 [3]: > 80 µM

CCCCOc1ccc(C2C3=C(CC(C)(C)CC3=O)Nc3ccccc3N2C(=O)c2ccccc2F)cc1 (stereo not shown) [13e]
IC50 [3]: 1.4 ± 0.1 µM

COc1ccc(C2C3=C(CC(C)CC3=O)Nc3ccccc3N2C(=O)c2ccc(F)cc2)cc1 (stereo not shown) [13f]
IC50 [3]: 9 ± 11 µM

COc1ccc(C2C3=C(CC(C)(C)CC3=O)Nc3ccccc3N2C(=O)c2ccc(Cl)cc2)cc1OC (stereo not shown) [13g]
IC50 [3]: > 80 µM

O=C1CCCC2=C1C(c1ccccc1)N(C(=O)c1ccc(Cl)cc1)c1ccccc1N2 (stereo not shown) [13h]
IC50 [3]: > 80 µM

Cc1ccc(C(=O)N2c3ccccc3NC3=C(C(=O)CCC3)C2c2ccccc2)cc1 (stereo not shown) [13i]
IC50 [3]: > 80 µM

COc1ccc(C(=O)N2c3ccccc3NC3=C(C(=O)CCC3)C2c2ccccc2)cc1 (stereo not shown) [13j]
IC50 [3]: > 80 µM

O=C1CCCC2=C1C(c1ccccc1)N(C(=O)C1CCCCC1)c1ccccc1N2 (stereo not shown) [13k]
IC50 [3]: > 80 µM

O=C1CCCC2=C1C(c1ccccc1)N(C(=O)c1ccco1)c1ccccc1N2 (stereo not shown) [13l]
IC50 [3]: > 55 µM

O=C1CCCC2=C1C(c1ccccc1)N(C(=O)c1ccc3ccccc3c1)c1ccccc1N2 (stereo not shown) [13m]
IC50 [3]: > 80 µM

O=C1CC(c2ccccc2)CC2=C1C(c1ccccc1)N(C(=O)c1ccccc1)c1ccccc1N2 (stereo not shown) [14a]
IC50 [4]: 1100 ± 100 nM

COc1ccc(C2CC(=O)C3=C(C2)Nc2ccccc2N(C(=O)c2ccccc2)C3c2ccccc2)cc1 (stereo not shown) [14b]
IC50 [4]: 1000 ± 100 nM

COc1ccc(C2CC(=O)C3=C(C2)Nc2ccccc2N(C(=O)c2ccccc2)C3c2ccc(OC)cc2)cc1 (stereo not shown) [14e]
IC50 [4]: 1200 ± 200 nM

COc1ccc(C2C3=C(CC(c4ccc(C)cc4)CC3=O)Nc3ccccc3N2C(=O)c2ccccc2)cc1OC (stereo not shown) [14g]
IC50 [4]: 2100 ± 500 nM

COc1cccc(C2C3=C(CC(c4ccccc4)CC3=O)Nc3ccccc3N2C(=O)c2ccccc2)c1 (stereo not shown) [14h]
IC50 [4]: > 80000 nM

COc1ccc(C2CC(=O)C3=C(C2)Nc2ccccc2N(C(=O)c2ccccc2)C3c2cccc(OC)c2)cc1 (stereo not shown) [14i]
IC50 [4]: > 80000 nM

Cc1ccc(C2C3=C(CC(c4ccc(Cl)cc4)CC3=O)Nc3ccccc3N2C(=O)c2ccccc2)cc1 (stereo not shown) [14j]
IC50 [4]: > 80000 nM

Cc1ccc(C2C3=C(CC(c4cccc(Cl)c4)CC3=O)Nc3ccccc3N2C(=O)c2ccccc2)cc1 (stereo not shown) [14k]
IC50 [4]: > 80000 nM

Cc1ccc(C2C3=C(CC(c4ccccc4F)CC3=O)Nc3ccccc3N2C(=O)c2ccccc2)cc1 (stereo not shown) [14l]
IC50 [4]: > 80000 nM

CC1CC(=O)C2=C(C1)Nc1ccccc1N(C(=O)c1ccccc1)C2c1cc(F)cc(F)c1 (stereo not shown) [14m]
IC50 [4]: 700 ± 50 nM
